According to article PMC2697495 (The Journal of pharmacy and pharmacology, 2008):

Target: T1, UGT1A3 (Homo sapiens, UniProt P35503)
T1 sequence (P35503 29-534): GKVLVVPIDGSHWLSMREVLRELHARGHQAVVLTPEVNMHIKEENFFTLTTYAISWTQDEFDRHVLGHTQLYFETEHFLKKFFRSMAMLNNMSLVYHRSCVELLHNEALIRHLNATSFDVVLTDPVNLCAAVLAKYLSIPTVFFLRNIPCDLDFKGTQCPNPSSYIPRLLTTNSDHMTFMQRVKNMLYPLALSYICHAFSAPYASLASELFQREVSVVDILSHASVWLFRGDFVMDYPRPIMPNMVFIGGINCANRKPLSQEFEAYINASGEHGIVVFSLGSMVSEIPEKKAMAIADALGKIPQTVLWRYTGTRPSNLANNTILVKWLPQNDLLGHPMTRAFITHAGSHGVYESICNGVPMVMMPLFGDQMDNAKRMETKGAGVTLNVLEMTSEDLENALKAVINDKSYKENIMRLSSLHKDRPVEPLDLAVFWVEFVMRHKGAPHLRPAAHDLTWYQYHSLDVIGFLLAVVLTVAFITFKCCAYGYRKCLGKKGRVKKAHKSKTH
Test: Estradiol-3 glucuronidation by recombinant UGT1A3
Format: biochemical
Details: for Estradiol-3 glucuronidation, % of the control activity (measured at 0 mM): UGT1A3, 100 μM estradiol, n=3

O=C(O)[C@@H](O)[C@H]1OC(=O)[C@H](O)[C@H]1O [saccharolactone, D-saccharic acid 1,4-lactone]
Estradiol-3 glucuronidation, % of the control activity (measured at 0 mM) (5 mM saccharolactone): 92±18% | Estradiol-3 glucuronidation, % of the control activity (measured at 0 mM) (20 mM saccharolactone): 97±10% | effect on estradiol glucuronidation (recombinant UGT1A3): no effect
